Measurements: patent US7238689B2, “Isoxazoline derivative and herbicide comprising the same as active ingredient” (Ihara Chemical Industry Co., Ltd., priority 2001, dated 2007)

Assays:
[1] = system: Echinochloa oryzicola Vasing; assay: Herbicidal effect by paddy field soil treatment; assay type: in vivo; set-up: scale not given here; settings: wettable powder, active ingredient 1000 g/ha, examined at the 21st day from the treatment
How it was run: (§1)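 Seeds sown in puddled paddy soil under 3 cm of water; the next day wettable powders diluted in water were dropped onto the water surface at 1,000 g active ingredient/ha. Plants grown in a greenhouse, with herbicidal effect scored on day 21 against a rating standard.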

[2] = system: Monochoria vaginalis (Murm. f.) Presl var. plantaginea (Roxb.) Solms-Laub.; assay: Herbicidal effect by paddy field soil treatment; assay type: in vivo; set-up: scale not given here; settings: wettable powder, active ingredient 1000 g/ha, examined at the 21st day from the treatment
How it was run: as §1

[3] = system: Echinochloa crus-galli (L.) Beauv. var. crusgalli; assay: Herbicidal effect by upland field soil treatment; assay type: in vivo; set-up: scale not given here; settings: active ingredient 1000 g/ha, examined at 21st day from treatment
Text: (§2) An upland field soil was filled in a plastic pot of 80 cm^2. Seeds of Echinochloa crus-galli (L.) Beauv. var. crusgalli and Setaria viridis (L.) Beauv. were sowed, followed by covering with the same soil. […] Then, breeding was made in a greenhouse, and the herbicidal effect of each wettable powder was examined at the 21st day from the treatment in accordance with the standard shown in Table 21.

[4] = system: Setaria viridis (L.) Beauv.; assay: Herbicidal effect by upland field soil treatment; assay type: in vivo; set-up: scale not given here; settings: active ingredient 1000 g/ha, examined at 21st day from treatment
Text: as §2

[5] = system: Echinochloa crus-galli (L.) Beauv. var. crus-galli; assay: Herbicidal effect by upland foliage treatment; assay type: in vivo; set-up: scale not given here; settings: active ingredient 1000 g/ha, examined at 14th day from treatment
How it was run: (§3)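 Two-week-old greenhouse plants in sand were sprayed over the whole foliage with water-diluted wettable powder at 1,000 liters per hectare, giving 1,000 g active ingredient per hectare. Herbicidal effect scored on a rating standard at day 14 after treatment.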

[6] = system: Setaria viridis (L.) Beauv.; assay: Herbicidal effect by upland foliage treatment; assay type: in vivo; set-up: scale not given here; settings: active ingredient 1000 g/ha, examined at 14th day from treatment
How it was run: as §3

| melting point | SMILES | Herbicidal effect index, Echinochloa oryzicola Vasing [1] | Herbicidal effect index, Monochoria vaginalis (Burm. F.) Presl var. plantaginea (Roxb.) Solms-Laub. [2] | herbicidal effect (index per standard of Table 21), Echinochloa curs-galli (L.) Beauv. Var. crus-galli [3] | herbicidal effect (index per standard of Table 21), Setaria viridis (L.) Beauv. [4] | herbicidal effect (index per standard of Table 21), Echinochloa curs-galli (L.) Beauv. Var. crus-galli [5] | herbicidal effect (index per standard of Table 21), Setaria viridis (L.) Beauv. [6] |
| --- | --- | --- | --- | --- | --- | --- | --- |
| 113 to 114 °C | Cn1nc(C(F)(F)F)c(CS(=O)(=O)C2=NOC(C)(C)C2)c1OC1CCCC1 [3-0015, 3-(5-cyclopentyloxy-1-methyl-3-trifluoromethyl-1H-pyrazol-4-ylmethylsulfonyl)-5,5-dimethyl-2-isoxazoline] | 5 | 5 | 5 | 5 | 5 | 4 |
| 113 to 114 °C | COc1c(CS(=O)(=O)C2=NOC(C)(C)C2)c(C(F)(F)F)nn1C [3-0013, 5,5-dimethyl-3-(5-methoxy-1-methyl-3-trifluoromethyl-1H-pyrazol-4-ylmethylsulfonyl)-2-isoxazoline] | 5 | 5 | 5 | 5 | 5 | 5 |
| 126 to 127 °C | CC1(C)CC(S(=O)(=O)Cc2c(C(F)(F)F)nn(C(F)F)c2Cl)=NO1 [3-0010, 3-(5-chloro-1-difluoromethyl-3-trifluoromethyl-1H-pyrazol-4-ylmethylsulfonyl)-5,5-dimethyl-2-isoxazoline] |  |  |  |  | 5 | 4 |
| 132 to 133 °C | CC1(C)CC(S(=O)(=O)Cc2c(C(F)(F)F)nn(-c3ccccc3)c2Cl)=NO1 [3-0002, 3-(5-chloro-1-phenyl-3-trifluoromethyl-1H-pyrazol-4-ylmethylsulfonyl)-5,5-dimethyl-2-isoxazoline] | 5 | 5 | 5 | 5 |  |  |
| 105 to 108 °C | Cn1nc(C(F)(F)F)c(CS(=O)(=O)C2=NOC(C)(C)C2)c1C#N [3-0016, 3-(5-cyano-1-methyl-3-trifluoromethyl-1H-pyrazol-4-ylmethylsulfonyl)-5,5-dimethyl-2-isoxazoline] | 5 | 5 | 5 | 5 |  |  |
| 136 to 137 °C | CC1(C)CC(S(=O)(=O)Cc2c(Cl)nn(C(F)F)c2C(F)(F)F)=NO1 [3-0011, 3-(3-chloro-1-difluoromethyl-5-trifluoromethyl-1H-pyrazol-4-ylmethylsulfonyl)-5,5-dimethyl-2-isoxazoline] |  |  |  |  | 5 | 4 |
| 89 to 90 °C | CC1(C)CC(SCc2c(Cl)nn(C(F)F)c2C(F)(F)F)=NO1 [3-0009, 3-(3-chloro-1-difluoromethyl-5-trifluoromethyl-1H-pyrazol-4-ylmethylthio)-5,5-dimethyl-2-isoxazoline] | 5 | 5 | 5 | 5 |  |  |
| 41 to 42 °C | CC1(C)CC(SCc2c(C(F)(F)F)nn(C(F)F)c2Cl)=NO1 [3-0008, 3-(5-chloro-1-difluoromethyl-3-trifluoromethyl-1H-pyrazol-4-ylmethylthio)-5,5-dimethyl-2-isoxazoline] |  |  | 5 | 5 | 4 | 4 |
| 95 to 96 °C | CON=C(C)c1c(C)sc(C)c1CS(=O)(=O)C1=NOC(C)(C)C1 [2-0001, 5,5-dimethyl-3-[2,5-dimethyl-4-(1-methoxyiminoethyl)-thiophen-3-ylmethylsulfonyl]-2-isoxazoline] | 5 | 5 | 5 | 5 | 5 | 4 |
| 158 to 160 °C | CCS(=O)(=O)c1c(CS(=O)(=O)C2=NOC(C)(C)C2)c(C(F)(F)F)nn1-c1ccccc1 [3-0004, 5,5-dimethyl-3-(5-ethylsulfonyl-1-phenyl-3-trifluoromethyl-1H-pyrazol-4-ylmethylsulfonyl)-2-isoxazoline] | 5 | 5 | 5 | 5 |  |  |
| 151 to 152 °C | CC1(C)CC(S(=O)(=O)Cc2c(C(F)(F)F)nn3c2OCCC3)=NO1 [3-0019, 3-(5,5-dimethyl-2-isoxazolin-3-ylsulfonylmethyl)-2-trifluoromethyl-6,7-dihydro-5H-pyrazolo[5,1-b][1,3]oxazine] |  |  | 5 | 5 |  |  |
| 67 to 70 °C | Cn1nc(C(F)(F)F)c(CS(=O)(=O)C2=NOC(C)(C)C2)c1Oc1ccccc1Cl [3-0014, 3-(5-(2-chlorophenoxy)-1-methyl-3-trifluoromethyl-1H-pyrazol-4-ylmethylsulfonyl)-5,5-dimethyl-2-isoxazoline] | 5 | 5 |  |  |  |  |
